Laboratory results reported in paper PMC9780888, “4-Isobutylmethcathinone—A Novel Synthetic Cathinone with High In Vitro Cytotoxicity and Strong Receptor Binding Preference of Enantiomers” (Pharmaceuticals, 2022).
Structures can show the parent of a compound that is named as a salt.

System: Hep G2
Test: WST-1 viability assay, Hep G2 cells
Type: cell-based, human
Conditions: Hep G2, 72 h incubation, WST-1, four replicates
Description: Based on the novelty of the IMBcat compound, we aimed to evaluate its in vitro cytotoxicity in selected model cell lines as well as to determine the toxicity of the IBMcat enantiomers, since both the chemical structure and chirality of compounds could play a role in their bioactivity (Table 2). The cytotoxic profile of the IBMcat was determined by a WST-1 viability assay after 72-h treatment. For this purpose, cell lines derived from distinct tissues, often affected by NPSs, were chosen, i.e., cells of kidney, hepatic, neural, urinary, and intestinal origin as well as keratinocytes and primary fibroblasts (HEK 293T, Hep G2, HMC-3, SH-SY5Y, 5637, CaCo-2, HaCaT, MRC-5, and BJ, respectively). The cytotoxicity of IBMcat and its enantiomers was concentration- and cell-line dependent, the IC50 values, which were in the micromolar range, are given in Table 2. […] This was followed by embryonic kidney cells HEK 293T (immortalized), in which the toxicity ranged between a concentration of 123 and 192 µM.
In this study, the following cell lines were used: HEK 293T, Hep G2, HMC-3, SH-SY5Y, 5637, CaCo-2, HaCaT, MRC-5, BJ, and L929. […] The selected cell lines were chosen so that not only primary noncancerous cells are evaluated but also cells derived from tissues, which are the most often affected by novel synthetic drugs, i.e., kidney, liver, urinary bladder, and nervous tissue. […]
The cytotoxicity of IBMCat was evaluated in vitro by using a WST-1 viability assay (Sigma-Aldrich, Saint Louis, MO, USA) based on the transformation of a tetrazolium salt into colored formazan in metabolically active cells. […] After 72 h of additional incubation of the cells, their viability was determined by WST-1. […] The cells were incubated for 2 h, after which absorbance of the raised formazan was measured spectrophotometrically at 450 nm (reference wavelength of 630 nm) using a UV-Vis spectrometer (Bio-Rad Laboratories, Hercules, CA, USA). […] The half-maximal inhibitory concentrations (IC50) were calculated from the measured dose–response curves by AAT Bioquest.

Row | SMILES | IC50 (Homo sapiens, HepG2) | IC50
1 | CNC(C)C(=O)c1ccc(CC(C)C)cc1.Cl (stereo not drawn) [IBMcat, 4-isobutylmethcathinone hydrochloride] | 52 ± 7 µM | –
2 | CN[C@H](C)C(=O)c1ccc(CC(C)C)cc1 [R-IBMCat] | – | 49 ± 1 µM
3 | CN[C@@H](C)C(=O)c1ccc(CC(C)C)cc1 [S-IBMCat, (S)-4-isobutylmethcathinone hydrochloride] | 46 ± 9 µM | –
